Experimental data as given in PMC7710018, “Restoration of motor learning in a mouse model of Rett syndrome following long-term treatment with a novel small-molecule activator of TrkB” (Disease Models & Mechanisms, 2020).
Entries after “also recorded” stand apart in the source; their conditions may differ.

How the values were obtained:
[1] = tested on: 55 pharmacologically relevant receptors; assay: Cerep ExpresSProfile screen, whole panel; conditions: 10 μM; inhibition of binding greater than 50% = significant binding
Source text: To further define the specificity of PTX-BD4-3 for TrkB, we screened 55 pharmacologically relevant receptors, including neurotransmitter and G-protein coupled receptors for PTX-BD4-3 binding (Table S1). […] Thus, as with LM22A-4 ([Massa et al., 2010]), the specificity of PTX-BD4-3 for TrkB is supported by multiple lines of evidence, including receptor binding, receptor activation, receptor adaptor recruitment and cell survival assays.
To evaluate the relative binding specificity of LM22A-4 ([Massa et al., 2010]) and PTX-BD4-3, binding to a broad range of 55 pharmacologically relevant receptors, including numerous neurotransmitter and G-protein coupled receptors was assessed using standard radioligand competition binding assays (ExpressSProfile) performed by Cerep, Inc. (Seattle, WA, USA). In addition, ADME-Tox analysis was performed by Cerep, Inc. All experimental conditions are described on the Cerep website (www.cerep.fr). […]
48 Ca2+ channel (L, verapamil site) 0 ‐1.3 ‐0.7
(phenylalkylamine) (antagonist radioligand) […]
51 Na+ channel (site 2) (antagonist radioligand) 0.6 11.7 6.1
52 Cl‐ channel (GABA‐gated) (antagonist 2.7 ‐5.3 ‐1.3 […]
Table S1. In vitro binding assays. […]
(Eurofins Panlabs, MO). The results are expressed as percent inhibition of control specific binding obtained in the presence of 10 micromolar PTX-BD4-3. […]

AKT = assay: In vivo TrkB signaling, western blot of hippocampus and mPFC; design: species or system mouse; conditions: male Mecp2 null mice, 50 mg/kg i.p. once daily 5 days, 1 h after last injection, vs saline
Protocol: (§1) Animals were given either single or repeated doses of PTX-BD4-3 (50 mg/kg, i.p.) or vehicle (saline) and then sacrificed for tissue harvesting and western blot analysis of phosphorylated and total TrkB (pTrkB/TrkB), AKT (also known as AKT1) (pAKT/AKT) and ERK (also known as MAPK) (pERK/ERK), respectively, in the hippocampus and medial prefrontal cortex (mPFC).
(§2) Fig. 4. PTX-BD4-3 activates TrkB signaling in vivo following systemic administration in null male Mecp2 mutant mice. Null mice were treated for 5 days with once daily injections of PTX-BD4-3 (open bars, 50 mg/kg, i.p.) or saline (black bars, vehicle) and then sacrificed 1 h after the last injection. Brain lysates from the hippocampus and medial prefrontal cortex (mPFC) were processed for western blot analysis of phosphorylated and total TrkB (pTrkB^Y817/TrkB), AKT (pAKT/AKT) and ERK (pERK/ERK) as described in the Materials and Methods. For detection of total TrkB, AKT and ERK, blots were concomitantly probed with the respective total protein antibodies and each of the three bands quantitated as indicated by arrows. For ERK, the pair of bands (consistent with ERK1 and ERK2 isoforms) indicated by the brackets was quantitated together as one value. For each tissue, the same blot and images for total protein (TrkB, AKT, ERK, actin) are shown here in triplicate as an adjacent reference to phospho-protein detection. For detection of phospho-proteins in the hippocampus, blots were probed separately with the three indicated phospho antibodies. For detection in the mPFC, blots were probed separately for pTrkB and probed for pAKT and pERK concomitantly; and for the latter two, the same blot and image are shown here in duplicate as an adjacent reference to phospho-protein detection. ^§P<0.01 (compared to vehicle); *P<0.05 (compared to vehicle); Student's t-test.
(§3) Frozen tissues were lysed in RIPA lysis buffer (150 mM NaCl, 50 mM Tris, pH 7.4, 1 mM EDTA, 1% Triton X-100 or 1% NP40, 10% glycerol, 1 mM phenylmethylsulfonyl fluoride, Na3VO4 and protease inhibitor cocktail). Lysates were mixed with 4× NuPAGE LDS loading buffer and dithiothreitol, and 50 μg protein was loaded per lane on a NuPAGE 4-12% Bis-Tris gradient gel and transferred to polyvinylidene difluoride membrane (run at 100 V for 1.5 h). […]

ERK = assay: as above; design: species or system mouse; conditions: male Mecp2 null mice, 50 mg/kg i.p. once daily 5 days, 1 h after last injection, vs saline
Protocol: as §1, §2, §3

TrkB = assay: as above; design: species or system mouse; conditions: male Mecp2 null mice, vs saline
Protocol: as §1, §2, §3

SMILES: COCCN(C)C(=O)c1cc(C(=O)N(C)CCOC)cc(C(=O)N(C)CCOC)c1 [PTX-BD4-3, benzene-1,3,5-tricarboxylic acid tris-[(2-methoxy-ethyl)-methyl-amide]]
- binding within the panel of 55 receptors [1]: negative; also recorded: no significant binding
- pAKT/AKT (AKT): significantly increased
- pERK/ERK (ERK): no significant effect
- pTrkB/TrkB (TrkB; 50 mg/kg i.p. once daily 5 days, 1 h after last injection, hippocampus and mPFC): significantly increased
- expression of total TrkB, AKT or ERK (TrkB; 50 mg/kg i.p.): No differences
